The text below walks through data of the Bradley open melting point set (2014).

Take `O=C1CN(C(=O)OCc2ccccc2)CCN1` [4-benzyloxycarbonyl-2-piperazinone]: the melting point (in general, the temperature, or range, at which the solid turns liquid) came out at 120 °C.

`CC(=O)C=C(C)C` [mesityl oxide] returned a melting point of -59 °C.

Regarding `NNS(=O)(=O)c1ccccc1` [benzenesulfonyl hydrazide], the melting point was found to be 103 °C.

In turn, `CC1=CCCCC1` [1-methylcyclohexene] displayed a melting point of -120 °C.

As to `Cc1cn(C2CC(N=[N+]=[N-])C(CO)O2)c(=O)[nH]c1=O` (centres undefined) [zidovudine], the melting point stood at 106 °C.

`Cc1cc2cc(Cl)ccc2[nH]1` [5-chloro-2-methylindole] showed a melting point of 112 °C.

As for `CC(=O)c1ccccc1C(=O)O` [2-acetylbenzoic_acid], the melting point amounted to 116 °C.

In turn, `CCCCCCCCCC#N` [nonyl_cyanide] registered a melting point of -15 °C.

Take `CC(C)(C)c1ccc(C(C)(C)C)cc1` [p-di-tert-butylbenzene]: the melting point amounted to 74 °C.

For `CC(=O)NS(=O)(=O)c1ccc(N)cc1` [sulfacetamide], the melting point was 183 °C.

`CCCCCOC(C)=O` [N-pentyl acetate]: the melting point is -100 °C.

`O=C(O)CCCCCCCBr` [8-bromooctanoic acid] returned a melting point of 39 °C.

`COc1cccc(C=O)c1O` [2-hydroxy-3-methoxybenzaldehyde] had a melting point of 41 °C.

As to `CCOC(=O)c1ccc(C(=O)OCC)cc1` [diethyl terephthalate], the melting point turned out to be 45 °C.

Consider `c1ccc2c(c1)ccc1cc3c(ccc4ccccc43)cc12` [dibenzo[a,h]anthracene], for which the melting point turned out to be 266 °C.

The compound `Cc1[nH]n(-c2ccccc2)c(=O)c1C(=O)c1ccccc1` [4-benzoyl-3-methyl-1-phenyl-5-pyrazolinone] gave a melting point of 91 °C.

Take `COC(=O)c1cccc(B(O)O)c1` [3-(methoxycarbonyl)benzeneboronic acid]: the melting point worked out at 136 °C.

For `CCc1ccc(B(O)O)cc1` [4-ethylbenzeneboronic acid], the melting point came out at 152 °C.

Turning to `Nc1ccc([N+](=O)[O-])cc1N` [4-nitro-o-phenylenediamine], the melting point was determined as 201 °C.

In the case of `CC(C(=O)O)c1ccc(-c2ccccc2)c(F)c1` (centres undefined) [flurbiprofen], the melting point turned out to be 110 °C.

On to `O=C(O)c1ccc([N+](=O)[O-])cc1` [p-nitrobenzoic_acid], for which the melting point amounted to 241 °C.

`Cn1c(Cl)cc(=O)n(C)c1=O` [6-chloro-1,3-dimethyluracil] gave a melting point of 110 °C.

With `O=[N+]([O-])c1ccc(Oc2ccc(C(F)(F)F)cc2[N+](=O)[O-])cc1` [fluorodifen], the melting point was 94 °C.

The compound `Cc1ccc2oc(-c3ccc(O)cc3)cc(=O)c2c1` [4'-hydroxy-6-methylflavone] registered a melting point of 241 °C.

For the compound `C[C@@H]1O[C@H](OC[C@@H]2O[C@H](Oc3c(-c4ccc(O)c(O)c4)oc4cc(O)cc(O)c4c3=O)[C@@H](O)[C@H](O)[C@H]2O)[C@@H](O)[C@H](O)[C@H]1O` [Rutin], the melting point came to 125 °C.

For `Nc1ccn([C@@H]2O[C@H](CO)[C@@H](O)[C@@H]2O)c(=O)n1` [Cytarabine], the melting point amounted to 212 °C.

Compound `Cc1ccc(N)c(C)c1` [2,4-dimethylaniline] returned a melting point of -15 °C.

For `N#Cc1ccccc1Br` [2-bromobenzonitrile], the melting point was 55 °C.

`C=CC1CC=CCC1` (centres undefined) [4-Vinylcyclohexene] came in with a melting point of -101 °C.

The compound `CC(=O)CC(C)C` [4-Methylpentan-2-one] had a melting point of -80 °C.

`c1ccc(P(CP(c2ccccc2)c2ccccc2)c2ccccc2)cc1` [Methylenebis(diphenylphosphine)]: the melting point amounted to 121 °C.

`N#CCOc1ccc(Cl)cc1Cl` [2,4-dichlorophenoxyacetonitrile]: the melting point amounted to 47 °C.

`CCSc1nnn[nH]1` [5-(ethylthio)-1h-tetrazole] displayed a melting point of 76 °C.

In turn, `CCOC(=O)c1ccc(-n2c(C)ccc2C)cc1` [OSM-S-40] yielded a melting point of 60.5 °C.
